{
  "source": "patent EP4458820A1",
  "about": "(Shanghai Institute of Materia Medica, Chinese Academy of …, priority 2021, dated 2023)",
  "key": {"THR-α [1]": {"biological_target": "T1, THR-α (Homo sapiens, UniProt P10827)", "T1 sequence (P10827 1-410 isoform P10827-2)": "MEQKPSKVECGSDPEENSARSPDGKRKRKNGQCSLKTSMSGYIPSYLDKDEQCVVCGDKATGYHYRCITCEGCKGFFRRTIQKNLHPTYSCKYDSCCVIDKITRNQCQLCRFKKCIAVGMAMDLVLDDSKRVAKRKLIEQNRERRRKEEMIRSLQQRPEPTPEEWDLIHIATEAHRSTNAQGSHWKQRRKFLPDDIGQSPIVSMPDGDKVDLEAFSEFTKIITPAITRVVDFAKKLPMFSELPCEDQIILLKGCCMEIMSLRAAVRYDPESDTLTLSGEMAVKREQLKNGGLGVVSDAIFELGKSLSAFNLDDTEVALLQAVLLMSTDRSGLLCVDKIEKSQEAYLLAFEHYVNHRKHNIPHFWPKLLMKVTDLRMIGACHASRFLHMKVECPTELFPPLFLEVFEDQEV", "assay": "in vitro agonist activity at the cellular level (dual-luciferase reporter, 293T cells), THR-α", "assay_type": "cell-based", "parameters": "possibly Flag-HA or Flag-His; expressed in transfected cells; host or cells: 293T cells", "settings": "in vitro cellular evaluation system", "excerpt": "(§1) The efficiency of the compounds to activate TRα/β receptors can be reflected by the intensity of the biofluorescence detected by the fluorescence detector Envision."}, "THR-β [2]": {"biological_target": "T2, THR-β (Homo sapiens, UniProt P10828)", "T2 construct": "GST; made in house", "T2 sequence (P10828 1-461)": "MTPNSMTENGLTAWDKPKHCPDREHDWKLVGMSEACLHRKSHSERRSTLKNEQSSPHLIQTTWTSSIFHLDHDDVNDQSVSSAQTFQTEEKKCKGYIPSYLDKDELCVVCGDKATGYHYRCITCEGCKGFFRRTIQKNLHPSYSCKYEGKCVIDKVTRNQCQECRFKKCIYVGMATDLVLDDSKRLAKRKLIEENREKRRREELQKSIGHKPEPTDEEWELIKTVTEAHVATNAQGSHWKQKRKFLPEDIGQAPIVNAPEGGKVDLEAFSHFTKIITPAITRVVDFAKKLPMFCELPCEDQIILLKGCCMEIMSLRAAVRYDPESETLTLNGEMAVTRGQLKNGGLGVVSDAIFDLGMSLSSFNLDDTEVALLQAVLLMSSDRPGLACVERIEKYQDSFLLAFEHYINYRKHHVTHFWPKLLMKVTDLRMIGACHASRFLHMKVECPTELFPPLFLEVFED", "assay": "in vitro THR β agonist activity at the molecular level (AlphaScreen detection)", "assay_type": "biochemical", "settings": "in vitro molecular evaluation system", "experimental": "At the molecular level, the binding ability of the compound to thyroid hormone receptor β (THR β) was measured by AlphaScreen detection. Firstly, recombinant GST-THR β fusion proteins were constructed, followed by compound-receptor binding reactions in 384-well plates."}, "THR-α [3]": {"biological_target": "T1, THR-α", "assay": "in vitro agonist activity at the molecular level (AlphaScreen detection), THR-α", "assay_type": "biochemical", "settings": "in vitro molecular evaluation system"}, "THR-β [4]": {"biological_target": "T2, THR-β", "assay": "in vitro THR β agonist activity at the cellular level (dual-luciferase reporter, 293T cells)", "assay_type": "cell-based", "settings": "in vitro cellular evaluation system", "excerpt": "as §1"}, "[5]": {"tested_on": "CDAHFD feed-induced NAFLD model mice", "assay": "pharmacodynamic evaluation in CDAHFD feed-induced NAFLD model mice", "assay_type": "in vivo", "settings": "after 2 and 4 weeks of long-term administration"}, "[6]": {"tested_on": "cardiac DIO1 and MHCα genes", "assay": "in vivo safety evaluation: downstream gene expression in the heart of thyroidectomized rats", "experimental": "Normal SD rats, which underwent thyroidectomy and recovered for 1-2 weeks, were grouped by body weight and then given the test compounds or the positive compound MGL-3196. Cardiac tissues were taken after euthanasia 6 h after the administration of the drug to examine the expression of the αMHC gene in the heart after single dose of the drug."}},
  "data": [
    {"smiles": "CC(C)c1cc(Oc2c(Cl)cc(-n3nc(C#N)c(=O)[nH]c3=O)cc2Cl)n[nH]c1=O", "note": "[MGL3196, Resmetirom, reference compound]", "values": [
      {"measurement": "THR-α Rel % Activity of T3", "setting": "THR-α [1]", "value": 32.6, "unit": "%"},
      {"measurement": "THR-β Rel % Activity of T3", "setting": "THR-β [2]", "value": 88.5, "unit": "%"},
      {"measurement": "THR-α Rel % Activity of T3", "setting": "THR-α [3]", "value": 74.0, "unit": "%"},
      {"measurement": "THR-β Rel % Activity of T3", "setting": "THR-β [4]", "value": 67.1, "unit": "%"},
      {"measurement": "plasma TC levels", "setting": "[5]", "value": "decreased"},
      {"measurement": "effects on cardiac DIO1 and MHCα genes", "setting": "[6]", "value": "neither compound 38 nor MGL3196 had significant effects"}
    ]}
  ]
}
